Test results: patent US20240116892A1, “HETEROCYCLIC AMIDE AND UREA COMPOUNDS AS JAK2 INHIBITORS” (Ajax Therapeutics, Inc., priority 2022, published 2024)

Target: JAK2 (JH1 domain-catalytic, Y1007F, Y1008F) kinase (Homo sapiens (Human), UniProt O60674, Y1007F/Y1008F)
Assay: JAK2 JH1 Domain Binding Assay
Conditions: qPCR readout
Procedure: JAK2 (JH1 domain-catalytic, Y1007F, Y1008F) kinase was expressed as N-terminal fusion to the DNA binding domain of NFkB in transiently transfected HEK293 cells and subsequently tagged with DNA for qPCR detection. Streptavidin-coated magnetic beads were treated with biotinylated small molecule ligands for 30 minutes at room temperature to generate affinity resins for kinase assays. The liganded beads were blocked with excess biotin and washed with blocking buffer (SeaBlock (Pierce), 1% BSA, 0.05% Tween 20, 1 mmol/L DTT) to remove unbound ligand and to reduce nonspecific phage binding. Binding reactions were assembled by combining kinases, liganded affinity beads, and test compounds in 1× binding buffer (1× PBS, 0.05% Tween 20, 0.1% BSA, 1 mmol/L DTT). Test compound was prepared as 111× stocks in 100% DMSO and directly diluted into the assay wells. All reactions were performed in polypropylene 384-well plates in a final volume of 0.02 mL. The assay plates were incubated at room temperature with shaking for 1 hour and the affinity beads were washed with wash buffer (1× PBS, 0.05% Tween 20). The beads were then re-suspended in elution buffer (1× PBS, 0.05% Tween 20, 0.5 μmol/L non-biotinylated affinity ligand) and incubated at room temperature with shaking for 30 minutes. The kinase concentration in the eluate was measured by qPCR.

JAK2 (JH1 domain-catalytic, Y1007F, Y1008F) kinase, sequence (O60674 849-1124 Y1007F/Y1008F): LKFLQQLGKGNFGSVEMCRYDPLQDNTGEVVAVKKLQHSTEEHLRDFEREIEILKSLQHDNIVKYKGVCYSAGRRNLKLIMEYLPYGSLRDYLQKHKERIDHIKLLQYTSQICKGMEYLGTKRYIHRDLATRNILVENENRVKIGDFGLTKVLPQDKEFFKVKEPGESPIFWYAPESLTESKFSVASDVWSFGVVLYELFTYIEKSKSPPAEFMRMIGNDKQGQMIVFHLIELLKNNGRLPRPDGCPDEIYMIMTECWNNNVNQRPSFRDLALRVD

Compound	Kd [µM]
Cc1n[nH]c2ncc(N3CCC(N(C)C(=O)Nc4cc(C(F)(F)F)cn(C)c4=O)C(F)(F)C3)cc12 (single isomer, unassigned) [Example I-36-b, (S)- or (R)-1-(3,3-difluoro-1-(3-methyl-1H-pyrazolo[3,4-b]pyridin-5-yl)piperidin-4-yl)-1-methyl-3-(1-methyl-2-oxo-5-(trifluoromethyl)-1,2-dihydropyridin-3-yl)urea]	< 0.01
Cc1cc2nc(N3CCC(N(C)C(=O)Nc4cc(C(F)(F)F)cn(C)c4=O)C(F)(F)C3)cnc2[nH]1 (single isomer, unassigned) [Example I-37-a, (R)- or (S)-1-(3,3-difluoro-1-(6-methyl-5H-pyrrolo[2,3-b]pyrazin-2-yl)piperidin-4-yl)-1-methyl-3-(1-methyl-2-oxo-5-(trifluoromethyl)-1,2-dihydropyridin-3-yl)urea]	< 0.01
Cc1cc2nc(N3CCC(N(C)C(=O)Nc4cc(C(F)(F)F)cn(C)c4=O)C(F)(F)C3)cnc2[nH]1 (single isomer, unassigned) [Example I-37-b, (S)- or (R)-1-(3,3-difluoro-1-(6-methyl-5H-pyrrolo[2,3-b]pyrazin-2-yl)piperidin-4-yl)-1-methyl-3-(1-methyl-2-oxo-5-(trifluoromethyl)-1,2-dihydropyridin-3-yl)urea]	< 0.01
CN(C(=O)Nc1cc(C(F)(F)F)cn(C)c1=O)C1CCCN(c2cnc3[nH]ccc3n2)CC1 (single isomer, unassigned) [Example I-41-a, (R)- or (S)-1-(1-(5H-pyrrolo[2,3-b]pyrazin-2-yl)azepan-4-yl)-1-methyl-3-(1-methyl-2-oxo-5-(trifluoromethyl)-1,2-dihydropyridin-3-yl)urea]	1 to 5
CN(C(=O)Nc1cc(C(F)(F)F)cn(C)c1=O)C1CCCN(c2cnc3[nH]ccc3n2)CC1 (single isomer, unassigned) [Example I-41-b, (S)- or (R)-1-(1-(5H-pyrrolo[2,3-b]pyrazin-2-yl)azepan-4-yl)-1-methyl-3-(1-methyl-2-oxo-5-(trifluoromethyl)-1,2-dihydropyridin-3-yl)urea]	0.05 to 1
CN(C(=O)Nc1cc(C(F)(F)F)cn(C)c1=O)[C@@H]1C[C@@H]2C[C@H]1CN2c1cnc(NC(=O)C2CC2)cn1 (single isomer, unassigned) [Example I-44-a]	0.01 to 0.05
CN(C(=O)Nc1cc(C(F)(F)F)cn(C)c1=O)[C@H]1C[C@H]2C[C@@H]1CN2c1cnc(NC(=O)C2CC2)cn1 (single isomer, unassigned) [Example I-44-b]	0.01 to 0.05
CN(C(=O)Nc1cc(C(F)(F)F)cn(C)c1=O)[C@H]1CCN(c2cnc3[nH]ncc3c2)CC1(C)C (single isomer, unassigned) [Example I-45-a]	< 0.01
CN(C(=O)Nc1cc(C(F)(F)F)cn(C)c1=O)[C@@H]1CCN(c2cnc3[nH]ncc3c2)CC1(C)C (single isomer, unassigned) [Example I-45-b]	0.01 to 0.05
CN(C(=O)Nc1cc(C(F)(F)F)cn(C)c1=O)C1CCN(c2cnc3[nH]ccc3n2)CC1(C)C (single isomer, unassigned) [Example I-49-a, (R)- or (S)-1-(3,3-dimethyl-1-(5H-pyrrolo[2,3-b]pyrazin-2-yl)piperidin-4-yl)-1-methyl-3-(1-methyl-2-oxo-5-(trifluoromethyl)-1,2-dihydropyridin-3-yl)urea]	< 0.01
CN(C(=O)Nc1cc(C(F)(F)F)cn(C)c1=O)C1CCN(c2cnc3[nH]ccc3n2)CC1(C)C (single isomer, unassigned) [Example I-49-b, (S)- or (R)-1-(3,3-dimethyl-1-(5H-pyrrolo[2,3-b]pyrazin-2-yl)piperidin-4-yl)-1-methyl-3-(1-methyl-2-oxo-5-(trifluoromethyl)-1,2-dihydropyridin-3-yl)urea]	< 0.01
C[C@@H]1CN(C(=O)Nc2cc(C(F)(F)F)cn(C)c2=O)C2(CCN(c3cnc4[nH]ccc4n3)CC2)C1 (single isomer, unassigned) [Example I-53-a]	0.05 to 1
C[C@H]1CN(C(=O)Nc2cc(C(F)(F)F)cn(C)c2=O)C2(CCN(c3cnc4[nH]ccc4n3)CC2)C1 (single isomer, unassigned) [Example I-53-b]	0.05 to 1

Next, values leading:

Kd [µM]	Compound
0.05 to 1	CC1CN(C(=O)Nc2cc(C(F)(F)F)cn(C)c2=O)C2(CCN(c3cnc4[nH]cc(F)c4n3)CC2)C1 (single isomer, unassigned) [Example I-54-a]
0.05 to 1	CC1CN(C(=O)Nc2cc(C(F)(F)F)cn(C)c2=O)C2(CCN(c3cnc4[nH]cc(F)c4n3)CC2)C1 (single isomer, unassigned) [Example I-54-b]
0.05 to 1	C[C@@H]1CN(C(=O)Nc2cc(C(F)(F)F)cn(C)c2=O)C2(CCN(c3cnc4[nH]cc(C#N)c4n3)CC2)C1 (single isomer, unassigned) [Example I-60-a]
0.05 to 1	C[C@H]1CN(C(=O)Nc2cc(C(F)(F)F)cn(C)c2=O)C2(CCN(c3cnc4[nH]cc(C#N)c4n3)CC2)C1 (single isomer, unassigned) [Example I-60-b]
< 0.01	CN(C(=O)Nc1cc(C(F)(F)F)cn(C)c1=O)[C@@H]1CCN(c2cnc3[nH]ccc3n2)C[C@H]1F (single isomer, unassigned) [Example I-63-a]
< 0.01	CN(C(=O)Nc1cc(C(F)(F)F)cn(C)c1=O)[C@H]1CCN(c2cnc3[nH]ccc3n2)C[C@@H]1F (single isomer, unassigned) [Example I-63-b]
< 0.01	CN(C(=O)Nc1cc(C(F)(F)F)cn(C)c1=O)[C@@H]1CC=C(c2cnc3[nH]ccc3n2)CC1 (single isomer, unassigned) [Example I-82-a]
< 0.01	CN(C(=O)Nc1cc(C(F)(F)F)cn(C)c1=O)[C@H]1CC=C(c2cnc3[nH]ccc3n2)CC1 (single isomer, unassigned) [Example I-82-b]
< 0.01	CN1CCC(c2n[nH]c3ncc(N4CC[C@H](N(C)C(=O)Nc5cc(C(F)(F)F)cn(C)c5=O)C(F)(F)C4)cc23)CC1 (single isomer, unassigned) [Example I-122-a]
< 0.01	CN1CCC(c2n[nH]c3ncc(N4CC[C@@H](N(C)C(=O)Nc5cc(C(F)(F)F)cn(C)c5=O)C(F)(F)C4)cc23)CC1 (single isomer, unassigned) [Example I-122-b]
< 0.01	CC(=O)N1CCC(c2n[nH]c3ncc(N4CC[C@@H](N(C)C(=O)Nc5cc(C(F)(F)F)cn(C)c5=O)C(F)(F)C4)cc23)CC1 (single isomer, unassigned) [Example I-123-a]
< 0.01	CC(=O)N1CCC(c2n[nH]c3ncc(N4CC[C@H](N(C)C(=O)Nc5cc(C(F)(F)F)cn(C)c5=O)C(F)(F)C4)cc23)CC1 (single isomer, unassigned) [Example I-123-b]
< 0.01	CN1CCN(c2n[nH]c3ncc(N4CC[C@@H](N(C)C(=O)Nc5cc(C(F)(F)F)cn(C)c5=O)C(F)(F)C4)cc23)CC1 (single isomer, unassigned) [Example I-154-a, (R)- or (S)-1-(3,3-difluoro-1-(3-(4-methylpiperazin-1-yl)-1H-pyrazolo[3,4-b]pyridin-5-yl)piperidin-4-yl)-1-methyl-3-(1-methyl-2-oxo-5-(trifluoromethyl)-1,2-dihydropyridin-3-yl)urea]
